These results are taken from US4279912A, “Novel imidazoquinolines” (Roussel Uclaf, priority 1977, dated 1981).

Structures can show the parent of a compound that is named as a salt. Where two headings read alike, the source gives them in different places.

For this test, the system named is Passive cutaneous anaphylaxis (PCA). As to the kind of experiment: Passive cutaneous anaphylaxis (PCA) in rats. The test is classed as in vivo. The following applies: Rattus norvegicus. An excerpt:
Cutaneous anaphylaxis can be induced in rats by intradermal (ID) sensitization with antiserum followed three days later by systemic challenge with antigen. Evans blue dye injected with the antigen is used as a marker to assess the severity of the local response. Anti-allergic drugs inhibit this reaction. This method has been described by OVARY (1962) "[…] Cutaneous Anaphylaxis in Allergology" Page 358-367 Ed. Brown: Pergamon Press:-male rats weighing 180-220 grams are used in groups of seven. […] 1. Wash 120 grams of Al(OH)3 gel in 140 ml of saline (use of a macerater facilitates mixing). 2. Centrifuge at 3,000 r.p.m. for about 10 minutes. 3. Resuspend the precipitate with 300 ml of albumen egg powder (1.3 mg/ml) in saline and allow to stand for 30 minutes. 4. Centrifuge at 3,000 r.p.m. for 10 minutes. 5. Weigh the wet precipitate and to each gram weight add 1 ml of saline. Store in refrigerator (Quantity sufficient for 60 rats for a 3 day sensitization program). […] 1 ml of the alum precipitated ovalbumen was injected subcutaneously into rats weighing 180-220 grams on days 0,2,4. The rats were bled on day 14 either by cardiac puncture or via the dorsal abdominal aorta. Equal quantities of serum from each animal were pooled and thoroughly mixed and 2 ml aliquots were stored at -20° C. in plastic tubes. Serum Dilution for PCA The antiserum for sensitization was diluted so that an ID injection of 0.1 ml into control animals would give an average score of a single spot of between 2.0-3.5 using a 4 point scoring system. Method (A) SENSITIZATION: The rats were anaesthetized with Nembutal (40-60 mg/kg i.p.) and were then sensitized by four ID injections (0.1 ml each) on their shaved backs. The animals were then left for a period of three days to develop sensitization. (B) […]: The sensitized rats were dosed orally or intraveneously with the drug immediately prior to intraveneous challenge via the superficial penile vein with 1 ml of an antigen/Evans blue mixture (1 mg albumen egg powder in 0.5 ml saline plus 0.5 ml of 1% Evans blue). The injections were speeded up by using an automatic 1 ml self-filling glass syringe. The "challenged" rats were killed after 30 minutes, (usually pithed) and their skin on the dorsal surface was removed. The degree and area of blueing, proportional to the anaphylactic reaction was assessed on a four point scoring system. Calculations 1. Total scores for sites 1,2,3 and 4=X 2. Mean value of X for each group=X 3. X t=X for test group X c=X for control group [formula] 5. […] ED50 values for the compounds tested in the passive cutaneous anaphylaxis screen (in rats) are as follows: […]

The mark [1] stands for this setting: read-out: ED50 (dose of drug giving 50% inhibition), i.v., intravenous dosing immediately prior to antigen/Evans blue challenge.
Where [2] appears, read: read-out: ED50 (dose of drug giving 50% inhibition), p.o., oral dosing immediately prior to antigen/Evans blue challenge.

On to `O=C(O)c1cn2c(cc(Cl)c3ccccc32)n1` [Example 6, 5-chloroimidazo-[1,2-a]-quinoline-2-carboxylic acid hydrochloride], for which the ED50 under setting [1] is 0.0075 mg/kg and the ED50 under setting [2] stood at 0.47 mg/kg.

On to `O.O=C(O)c1cn2c(ccc3cc(Cl)ccc32)n1` [Example 24, 7-chloroimidazo-[1,2-a]-quinoline-2-carboxylic acid monohydrate], for which the ED50 under setting [1] was found to be 0.29 mg/kg.

`O=C(O)c1cn2c(cc(Cl)c3ccc(Cl)cc32)n1` [Example 22, 5,8-dichloroimidazo-[1,2-a]-quinoline-2-carboxylic acid]: the ED50 is, setting by setting: under setting [1], 0.023 mg/kg; under setting [2], 0.033 mg/kg.

For `O=C(O)c1cn2c(cc(Cl)c3ccc(Br)cc32)n1` [Example 32, 8-bromo-5-chloroimidazo-[1,2-a]-quinoline-2-carboxylic acid], the ED50 is, setting by setting: under setting [1], 0.025 mg/kg; under setting [2], 0.08 mg/kg.

As for `CCOC(=O)c1cn2c(cc(Cl)c3ccccc32)n1` [Example 5, ethyl 5-chloroimidazo-[1,2-a]-quinoline-2-carboxylate], under setting [2], the ED50 worked out at 0.096 mg/kg.

As to `O=C(OCCN1CCCCC1)c1cn2c(ccc3ccccc32)n1` [Example 35, 2-piperidinoethyl imidazo-[1,2-a]-quinoline-2-carboxylate], the ED50 under setting [1] worked out at 0.42 mg/kg.

`COc1ccc2c(ccc3nc(C(=O)O)cn32)c1` [Example 28, 7-methoxyimidazo-[1,2-a]-quinoline-2-carboxylic acid]: under setting [1], the ED50 came to 0.03 mg/kg.

For the compound `CC(C)Oc1cc2nc(C(=O)O)cn2c2ccccc12` [Example 8, 5-isopropoxyimidazo-[1,2-a]-quinoline-2-carboxylic acid hydrochloride], the ED50 is, setting by setting: under setting [1], 0.12 mg/kg; under setting [2], 1.13 mg/kg.

For the compound `COc1ccc2ccc3nc(C(=O)O)cn3c2c1` [Example 20, 8-methoxyimidazo-[1,2-a]-quinoline-2-carboxylic acid], the ED50 stood at 0.038 mg/kg under setting [1] and 0.14 mg/kg under setting [2].

In the case of `COc1ccc2c(OC)cc3nc(C(=O)O)cn3c2c1` [Example 12, 5,8-dimethoxyimidazo-[1,2-a]-quinoline-2-carboxylic acid], the ED50 under setting [1] was determined as 1.22 mg/kg.

`O=C(O)c1cn2c(ccc3ccccc32)n1` [Example 2, imidazo-[1,2-a]-quinoline-2-carboxylic acid hydrochloride]: the ED50 under setting [1] stood at 0.29 mg/kg and the ED50 under setting [2] was 0.63 mg/kg.

`COc1ccc2c(OC(C)C)cc3nc(C(=O)O)cn3c2c1` [Example 14, 8-methoxy-5-isopropoxyimidazo-[1,2-a]-quinoline-2-carboxylic acid]: the ED50 under setting [1] amounted to 0.091 mg/kg and the ED50 under setting [2] is about 10 mg/kg.

For `O=C(O)c1cn2c(ccc3ccc(Cl)cc32)n1` [Example 10, sodium 8-chloroimidazo-[1,2-a]-quinoline-2-carboxylate], the ED50 under setting [1] worked out at 0.069 mg/kg and the ED50 under setting [2] was determined as 0.11 mg/kg.

For the compound `CC(C)Oc1cc2nc(C(=O)O)cn2c2cc(Cl)ccc12` [Example 18, 8-chloro-5-isopropoxyimidazo-[1,2-a]-quinoline-2-carboxylic acid], the ED50 is, setting by setting: under setting [1], 0.027 mg/kg; under setting [2], 0.34 mg/kg.

Consider `CCOC(=O)c1cn2c(ccc3ccc(Cl)cc32)n1` [Example 9, ethyl 8-chloroimidazo-[1,2-a]-quinoline-2-carboxylate], for which the ED50 under setting [2] was 1.72 mg/kg.

Take `COc1cc2nc(C(=O)O)cn2c2ccccc12` [Example 4, THAM salt of 5-methoxyimidazo-[1,2-a]-quinoline-2-carboxylic acid]: the ED50 by setting is: under setting [1], 0.57 mg/kg; under setting [2], 3.74 mg/kg.

Regarding `COc1ccc2c(Cl)cc3nc(C(=O)O)cn3c2c1.Cl` [Example 16, 5-chloro-8-methoxyimidazo-[1,2-a]-quinoline-2-carboxylic acid hydrochloride], the ED50 under setting [1] was determined as 0.016 mg/kg and the ED50 under setting [2] came out at 0.27 mg/kg.

`O=C(O)c1cn2c(cc(Br)c3ccccc32)n1` [Example 26, 5-bromoimidazo-[1,2-a]-quinoline-2-carboxylic acid]: the ED50 by setting is: under setting [1], 0.046 mg/kg; under setting [2], 0.14 mg/kg.
